Experimental data taken from US20060128721A1, “Novel formulations of opioid-based treatments of pain comprising substituted 1,4-di-piperidin-4-yl-piperazine derivatives” (priority 2003, published 2006).
Where two headings read alike, the source gives them in different places. Each block holds one molecule with its values, some of them ahead of it.

Experiments:
[1] = biological target: T1, cloned human h-NK3 receptors expressed in CHO cells (Homo sapiens, UniProt P29371); experiment: Binding experiment for h-NK3 receptors ([3H]-SR-142801 displacement); settings: [3H]-SR-142801, CHO cells; read-out: h-NK3 pIC50 (converted)
T1 construct: expressed in transfected cells; host or cells: CHO cells
T1 sequence (P29371 1-465): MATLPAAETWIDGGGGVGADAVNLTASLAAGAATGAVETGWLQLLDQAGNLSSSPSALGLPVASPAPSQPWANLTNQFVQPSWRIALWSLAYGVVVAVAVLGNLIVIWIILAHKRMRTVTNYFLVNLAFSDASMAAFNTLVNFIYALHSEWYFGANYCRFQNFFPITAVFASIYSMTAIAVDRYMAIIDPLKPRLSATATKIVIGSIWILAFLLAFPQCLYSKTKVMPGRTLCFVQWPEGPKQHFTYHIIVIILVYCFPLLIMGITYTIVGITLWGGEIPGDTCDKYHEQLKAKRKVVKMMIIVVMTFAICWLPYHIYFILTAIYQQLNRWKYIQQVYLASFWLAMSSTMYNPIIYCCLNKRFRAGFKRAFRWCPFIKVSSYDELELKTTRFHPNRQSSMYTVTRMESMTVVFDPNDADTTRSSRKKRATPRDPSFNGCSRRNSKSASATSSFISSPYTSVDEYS
Procedure: (§1) The compounds according to the invention were investigated for interaction with various neurotransmitter receptors, ion channels and transporter binding sites using the radioligand binding technique. Membranes from tissue homogenates or from cells, expressing the receptor or transporter of interests, were incubated with a radioactively labelled substance ([^3H]- or [^125I] ligand) to label a particular receptor. […] Following incubation, labelled membranes were harvested and rinsed with excessive cold buffer to remove non-bound radioactivity by rapid filtration under suction. Membrane bound radioactivity was counted in a scintillation counter and results were expressed in counts per minute (cpm).
(§2) The compounds were dissolved in DMSO and tested at 10 concentrations ranging from 10^−10 to 10^−5 M.
(§3) The ability of the compounds according to the invention to displace [^3H]-Substance P from cloned human h-NK1 receptors expressed in CHO cells, to displace [^3H]-SR-48968 from cloned human h-NK2 receptors expressed in Sf9 cells, and to displace [^3H]-SR-142801 from cloned human h-NK3 receptors expressed in CHO cells was evaluated.

[2] = biological target: T2, cloned human h-NK2 receptors expressed in Sf9 cells (Homo sapiens, UniProt P21452); experiment: Binding experiment for h-NK2 receptors ([3H]-SR-48968 displacement); settings: [3H]-SR-48968, Sf9 cells; read-out: h-NK2 pIC50 (converted)
T2 construct: expressed in transfected cells; host or cells: Sf9 cells
T2 sequence (P21452 1-398): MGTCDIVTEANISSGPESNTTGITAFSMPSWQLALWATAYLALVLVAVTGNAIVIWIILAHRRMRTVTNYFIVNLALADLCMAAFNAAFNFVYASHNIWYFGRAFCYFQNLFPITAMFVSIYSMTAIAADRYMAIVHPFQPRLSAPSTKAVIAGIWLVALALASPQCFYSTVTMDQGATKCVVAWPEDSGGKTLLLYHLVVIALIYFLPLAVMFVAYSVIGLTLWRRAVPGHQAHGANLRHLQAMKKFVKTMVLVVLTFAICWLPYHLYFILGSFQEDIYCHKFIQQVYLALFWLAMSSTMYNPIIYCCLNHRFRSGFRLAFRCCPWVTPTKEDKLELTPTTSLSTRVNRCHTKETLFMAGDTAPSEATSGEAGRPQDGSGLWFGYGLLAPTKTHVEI
Procedure: as §1, §2, §3

[3] = biological target: T3, cloned human h-NK1 receptors expressed in CHO cells (Homo sapiens, UniProt P25103); experiment: Binding experiment for h-NK1 receptors ([3H]-Substance P displacement); settings: read-out: h-NK1 pIC50 (converted)
T3 construct: expressed in transfected cells; host or cells: CHO cells
Procedure: as §1, §2, §3

[4] = test system: loperamide-induced retching; experiment: Antiemetic effects: loperamide-induced retching in ferrets; assay type: in vivo; settings: ferrets
Procedure: The antiemetic effects have been determined using the loperamide-induced retching model (i.e. retching induced by an opioid) in ferrets. To exclude species differences in antiemetic activiey, both compounds have also been tested for antiemetic activity against apomorphine in dogs.
Antagonism of emesis induced by the peripherally selective opioid loperamide (0.31 mg/kg, s.c.) was studied over a 1 h-period starting immediately after the emetic challenge in ferrets pretreated with test compound or solvent. In control animals pre-treated with solvent, loperamide induced pronounced retching (mean±SD: 95±39 counts; n=[…]) and, to a lesser extent, vomiting (5±4).

T3 sequence (P25103 whole entry): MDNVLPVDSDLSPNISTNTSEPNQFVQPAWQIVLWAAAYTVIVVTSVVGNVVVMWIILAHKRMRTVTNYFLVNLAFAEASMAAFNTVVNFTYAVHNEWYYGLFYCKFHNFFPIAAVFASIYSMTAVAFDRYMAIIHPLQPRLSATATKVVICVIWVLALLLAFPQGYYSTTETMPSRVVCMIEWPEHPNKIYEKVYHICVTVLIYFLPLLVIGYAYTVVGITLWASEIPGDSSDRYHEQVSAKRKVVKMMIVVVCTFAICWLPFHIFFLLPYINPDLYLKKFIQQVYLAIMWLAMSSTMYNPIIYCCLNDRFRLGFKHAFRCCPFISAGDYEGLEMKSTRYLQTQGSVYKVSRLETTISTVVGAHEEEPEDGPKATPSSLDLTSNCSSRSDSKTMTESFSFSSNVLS

Structure (SMILES): O=C(c1cc(C(F)(F)F)cc(C(F)(F)F)c1)N1CCC(N2CCN(C3CCN(Cc4nc5ccccc5[nH]4)CC3)CC2)CC1Cc1ccccc1 (stereo not drawn) [Compound 7]
- melting point: 135 °C
- IC50 [1]: 1000 nM
- IC50 [2]: 1000 nM
- IC50 [3]: 7.94 nM

Structure (SMILES): O=C(c1cc(C(F)(F)F)cc(C(F)(F)F)c1)N1CC[C@H](N2CCN(C3CCN(c4ncccn4)CC3)CC2)C[C@H]1Cc1ccccc1 [Compound 16]
- IC50 [1]: 158 nM
- IC50 [2]: 501 nM
- IC50 [3]: 1 nM

Structure (SMILES): O=C(c1ccccc1)N1CCC(N2CCN(C3CCN(C(=O)c4cc(C(F)(F)F)cc(C(F)(F)F)c4)C(Cc4ccccc4)C3)CC2)CC1 (stereo not drawn) [Compound 3, {4-[4-(1-benzoyl-piperidin-4-yl)-piperazin-1-yl]-2-benzyl-piperidin-1-yl}-(3,5-bis-trifluoromethyl-phenyl)-methanone]
- ratio of oral ED50 (at time of peak effect) over subcutaneous ED50 (obtained at 1 h) [4]: 1.4-1.8
- ED50 ([4]; blockade (=0 retches), intravenous route, 1 h after administration, read-out: ED50 for blockade of loperamide-induced retching): 0.88 mg/kg
- ED50 ([4]; blockade (=0 retches), oral route, 1 h after administration, read-out: ED50 for blockade of loperamide-induced retching): 1.65 mg/kg
- ED50 ([4]; blockade (=0 retches), oral route, 2 h after administration, read-out: ED50 for blockade of loperamide-induced retching): 2.18 mg/kg
- ED50 ([4]; blockade (=0 retches), oral route, 4 h after administration, read-out: ED50 for blockade of loperamide-induced retching): 1.25 mg/kg
- ED50 ([4]; blockade (=0 retches), oral route, 8 h after administration, read-out: ED50 for blockade of loperamide-induced retching): 2.89 mg/kg
- ED50 ([4]; blockade (=0 retches), oral route, 16 h after administration, read-out: ED50 for blockade of loperamide-induced retching): 2.89 mg/kg
- ED50 ([4]; blockade (=0 retches), oral route, 32 h after administration, read-out: ED50 for blockade of loperamide-induced retching): 5 mg/kg
- ED50 ([4]; blockade (=0 retches), oral route, 64 h after administration, read-out: ED50 for blockade of loperamide-induced retching): > 10 mg/kg
- ED50 ([4]; inhibition (<20 retches), intravenous route, 1 h after administration, read-out: ED50 for inhibition of loperamide-induced retching): 0.39 mg/kg
- ED50 ([4]; inhibition (<20 retches), oral route, 1 h after administration, read-out: ED50 for inhibition of loperamide-induced retching): 0.72 mg/kg
- ED50 ([4]; inhibition (<20 retches), oral route, 2 h after administration, read-out: ED50 for inhibition of loperamide-induced retching): 0.96 mg/kg
- ED50 ([4]; inhibition (<20 retches), oral route, 4 h after administration, read-out: ED50 for inhibition of loperamide-induced retching): 1.25 mg/kg
- ED50 ([4]; inhibition (<20 retches), oral route, 8 h after administration, read-out: ED50 for inhibition of loperamide-induced retching): 1.25 mg/kg
- ED50 ([4]; inhibition (<20 retches), oral route, 16 h after administration, read-out: ED50 for inhibition of loperamide-induced retching): 1.26 mg/kg
- ED50 ([4]; inhibition (<20 retches), oral route, 32 h after administration, read-out: ED50 for inhibition of loperamide-induced retching): 3.81 mg/kg
- ED50 ([4]; inhibition (<20 retches), oral route, 64 h after administration, read-out: ED50 for inhibition of loperamide-induced retching): > 10 mg/kg
- ED50 ([4]; oral administration, time of peak effect, read-out: graphically estimated peak-effect ED50 for blockade of retching (=0 retches)): 1.4 mg/kg
- duration of action ([4]; oral, at 4 times the peak-effect dose): 32 h
- Ratio p.o./s.c. of ED50 for blockade of retching ([4]; p.o. (−2 h) over s.c. (−1 h)): 2.3
- ED50 ([4]; iv, read-out: ED50 for blockade of retching 1 h after i.v. injection, i.v., 1 h): 0.88 mg/kg
- ED50 ([4]; iv, read-out: ED50 for inhibition of retching 1 h after i.v. injection, i.v., 1 h): 0.39 mg/kg
- ED50 ([4]; read-out: ED50 (95% confidence limits) for blockade of loperamide-induced retching, p.o. route (−2 h), loperamide 0.31 mg/kg s.c., 2 h after oral administration, blockade = 0 retches): 2.18 mg/kg
- ED50 ([4]; read-out: graphically estimated peak-effect ED50 for inhibition of retching (<20 retches), oral administration, time of peak effect): 1 mg/kg
- ED50 ([4]; sc, read-out: ED50 for blockade of loperamide-induced retching, loperamide 0.31 mg/kg s.c., 1 h after subcutaneous administration, blockade = 0 retches): 0.96 mg/kg
- ED50 ([4]; sc, blockade (=0 retches), subcutaneous route, 1 h after administration, read-out: ED50 for blockade of loperamide-induced retching): 0.96 mg/kg
- ED50 ([4]; sc, inhibition (<20 retches), subcutaneous route, 1 h after administration, read-out: ED50 for inhibition of loperamide-induced retching): 0.55 mg/kg
- ED50 ([4]; sc, s.c., 1 h, <20 retches, read-out: ED50 for inhibition of retching one hour after s.c. injection): 0.55 mg/kg
- ED50 ([4]; sc, s.c., 1 h, =0 retches, read-out: ED50 for complete blockade of retching one hour after s.c. injection): 0.96 mg/kg
- IC50 [1]: 251 nM
- IC50 [2]: 501 nM
- IC50 [3]: 1.26 nM

Continued, values first:

- IC50 [1]: 251 nM
- IC50 [2]: 794 nM
- IC50 [3]: 0.501 nM
Structure (SMILES): O=C(c1cccnc1)N1CCC(N2CCN([C@H]3CCN(C(=O)c4cc(C(F)(F)F)cc(C(F)(F)F)c4)[C@H](Cc4ccccc4)C3)CC2)CC1 [Compound 80]

- IC50 [1]: 5010 nM
- IC50 [2]: 3980 nM
- IC50 [3]: 3.16 nM
Structure (SMILES): Cc1nnsc1C(=O)N1CCC(N2CCN([C@H]3CCN(C(=O)c4cc(C(F)(F)F)cc(C(F)(F)F)c4)[C@@H](Cc4ccccc4)C3)CC2)CC1 [Compound 140]
